# In US12077503B2, “Substituted cyclic amides and their use as herbicides” (FMC CORPORATION, priority 2015, dated 2024):
# Key:
# Type in all cases: in vivo
# rice (Oryra sativa) = test: Test B flooded paddy test; details: Oryza sativa, 250 g ai/ha, Flood; 0 to 100 scale where 0 is no effect and 100 is complete control; read-out: Rice plant response rating
# Outline: (§1)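 Greenhouse paddy pots with 2-leaf stage plants received compound by direct addition to floodwater 3 cm deep, kept at that level. Scored visually at 13–15 d versus controls (0 no effect; 100 complete control).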
# [1] = test system: sedge, umbrella (small-flower umbrella sedge, Cyperus difformis); test: Test B flooded paddy test; details: Cyperus difformis, 250 g ai/ha, Flood; 0 to 100 scale where 0 is no effect and 100 is complete control; read-out: Sedge, Umbrella plant response rating
# Outline: as §1
# [2] = test system: barnyardgrass (Echinochloa crus-galli); test: Test B flooded paddy test; details: Echinochloa crus-galli, 250 g ai/ha, Flood; 0 to 100 scale where 0 is no effect and 100 is complete control; read-out: Barnyardgrass plant response rating
# Outline: as §1
# [3] = test system: ducksalad (Heteranthera limosa); test: Test B flooded paddy test; details: Heteranthera limosa, 250 g ai/ha, Flood; 0 to 100 scale where 0 is no effect and 100 is complete control; read-out: Ducksalad plant response rating
# Outline: as §1
# [4] = test system: barnyardgrass (Echinochloa crus-galli); test: Test A postemergence; details: Echinochloa crus-galli, post-emergence, 240 h, postemergence; for pest or weed control at 125 g/ha: 125 g ai/ha; for pest or weed control at 500 g/ha: 500 g ai/ha, 0 to 100 scale, 0 is no effect, 100 is complete control
# Outline: (§2)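 Seeds sprayed preemergence with a directed soil spray, or plants at 2 to 10 cm height and one- to two-leaf stage sprayed postemergence, with test chemicals in a non-phytotoxic solvent mixture containing surfactant, in loam soil–sand blend. Injury rated visually against untreated controls after about 10 d in greenhouse, 0 (no effect) to 100 (complete control).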
# [5] = test system: ragweed (common ragweed, Ambrosia elatior); test: Test A postemergence; details: Ambrosia artemisiifolia, post-emergence, 240 h, postemergence; for pest or weed control at 125 g/ha: 125 g ai/ha; for pest or weed control at 500 g/ha: 500 g ai/ha, 0 to 100 scale, 0 is no effect, 100 is complete control
# Outline: as §2
# Kochia (Kochia scoparia) [6] = test: Test A postemergence; details: Bassia scoparia, post-emergence, 240 h, postemergence; for pest or weed control at 125 g/ha: 125 g ai/ha; for pest or weed control at 500 g/ha: 500 g ai/ha, 0 to 100 scale, 0 is no effect, 100 is complete control
# Outline: as §2
# [7] = test system: giant foxtail (Setaria faberii); test: Test A postemergence; details: Setaria faberi, post-emergence, 240 h, postemergence; for pest or weed control at 125 g/ha: 125 g ai/ha; for pest or weed control at 500 g/ha: 500 g ai/ha, 0 to 100 scale, 0 is no effect, 100 is complete control
# Outline: as §2
# [8] = test system: ryegrass, Italian (Italian ryegrass, Lolium multiflorum); test: Test A preemergence; details: Lolium multiflorum, pre-emergence, 240 h, preemergence, 0 to 100 scale where 0 is no effect and 100 is complete control, read-out: Ryegrass, Italian plant response rating; for pest or weed control at 125 g/ha: 125 g ai/ha, approx. 10 d; for pest or weed control at 500 g/ha: 500 g ai/ha
# Outline: as §2
# [9] = test system: barnyardgrass (Echinochloa crus-galli); test: Test A preemergence; details: Echinochloa crus-galli, pre-emergence, 240 h, preemergence, 0 to 100 scale where 0 is no effect and 100 is complete control, read-out: Barnyardgrass plant response rating; for pest or weed control at 125 g/ha: 125 g ai/ha, approx. 10 d; for pest or weed control at 500 g/ha: 500 g ai/ha
# Outline: as §2
# [10] = test system: ragweed (common ragweed, Ambrosia elatior); test: Test A preemergence; details: Ambrosia artemisiifolia, pre-emergence, 240 h, preemergence, 0 to 100 scale where 0 is no effect and 100 is complete control, read-out: Ragweed plant response rating; for pest or weed control at 125 g/ha: 125 g ai/ha, approx. 10 d; for pest or weed control at 500 g/ha: 500 g ai/ha
# Outline: as §2
# Kochia (Kochia scoparia) [11] = test: Test A preemergence; details: Bassia scoparia, pre-emergence, 240 h, preemergence, 0 to 100 scale where 0 is no effect and 100 is complete control, read-out: Kochia plant response rating; for pest or weed control at 125 g/ha: 125 g ai/ha, approx. 10 d; for pest or weed control at 500 g/ha: 500 g ai/ha
# Outline: as §2
# [12] = test system: giant foxtail (Setaria faberii); test: Test A preemergence; details: Setaria faberi, pre-emergence, 240 h, preemergence, 0 to 100 scale where 0 is no effect and 100 is complete control, read-out: Foxtail, Giant plant response rating; for pest or weed control at 125 g/ha: 125 g ai/ha, approx. 10 d; for pest or weed control at 500 g/ha: 500 g ai/ha
# Outline: as §2
# [13] = test system: pigweed (Amaranthus retroflexus); test: Test A preemergence; details: Amaranthus retroflexus, pre-emergence, 240 h, preemergence, 0 to 100 scale where 0 is no effect and 100 is complete control, read-out: Pigweed plant response rating; for pest or weed control at 125 g/ha: 125 g ai/ha, approx. 10 d; for pest or weed control at 500 g/ha: 500 g ai/ha
# [14] = read-out: Barnyardgrass plant response rating
# [15] = read-out: Ragweed plant response rating
# [16] = read-out: Kochia plant response rating
# [17] = read-out: Foxtail, Giant plant response rating
Compound,pest or weed control at 250 g/ha (rice (Oryra sativa)) [%],pest or weed control at 250 g/ha [1] [%],pest or weed control at 250 g/ha [2] [%],pest or weed control at 250 g/ha [3] [%],"pest or weed control at 500 g/ha [4, 14] [%]","pest or weed control at 500 g/ha [5, 15] [%]",pest or weed control at 500 g/ha (Kochia (Kochia scoparia) [6]; [16]) [%],"pest or weed control at 500 g/ha [7, 17] [%]",pest or weed control at 125 g/ha [8] [%],pest or weed control at 500 g/ha [8] [%],pest or weed control at 125 g/ha [9] [%],pest or weed control at 500 g/ha [9] [%],pest or weed control at 125 g/ha [10] [%],pest or weed control at 500 g/ha [10] [%],pest or weed control at 125 g/ha (Kochia (Kochia scoparia) [11]) [%],pest or weed control at 500 g/ha (Kochia (Kochia scoparia) [11]) [%],pest or weed control at 125 g/ha [12] [%],pest or weed control at 500 g/ha [12] [%],pest or weed control at 125 g/ha [13] [%],pest or weed control at 500 g/ha [13] [%],other results
O=C1NC[C@H](c2ccc(F)c(OC(F)(F)C(F)(F)Br)c2)[C@H]1C(=O)Nc1ccccc1F [Compound 1134],0,0,0,0,80,30,30,80,0,40,30,80,0,70,50,60,70,90,0,30,"pest or weed control at 125 g/ha ([4]; visual injury on 0 to 100 scale (0 no effect, 100 complete control), approx. 10 d, read-out: Barnyardgrass plant response rating): 60%; pest or weed control at 125 g/ha ([5]; visual injury on 0 to 100 scale (0 no effect, 100 complete control), approx. 10 d, read-out: Ragweed plant response rating): 0%; pest or weed control at 125 g/ha (Kochia (Kochia scoparia) [6]; visual injury on 0 to 100 scale (0 no effect, 100 complete control), approx. 10 d, read-out: Kochia plant response rating): 0%; pest or weed control at 125 g/ha ([7]; visual injury on 0 to 100 scale (0 no effect, 100 complete control), approx. 10 d, read-out: Foxtail, Giant plant response rating): 30%"
Cc1nc([C@H]2CNC(=O)[C@@H]2C(=O)Nc2cccc(F)c2F)cs1 [Compound 1180],0,0,0,85,0,0,0,0,0,0,20,70,0,0,0,30,0,50,0,0,"pest or weed control at 125 g/ha ([4]; visual injury vs untreated controls after approx. 10 d, 0 = no effect, 100 = complete control, read-out: Barnyardgrass plant response rating (0 to 100 scale)): 0%; pest or weed control at 125 g/ha ([5]; visual injury vs untreated controls after approx. 10 d, 0 = no effect, 100 = complete control, read-out: Ragweed plant response rating (0 to 100 scale)): 0%; pest or weed control at 125 g/ha (Kochia (Kochia scoparia) [6]; visual injury vs untreated controls after approx. 10 d, 0 = no effect, 100 = complete control, read-out: Kochia plant response rating (0 to 100 scale)): 0%; pest or weed control at 125 g/ha ([7]; visual injury vs untreated controls after approx. 10 d, 0 = no effect, 100 = complete control, read-out: Foxtail, Giant plant response rating (0 to 100 scale)): 0%"
